Assay results from patent publication USRE48253E1, “Methotrexate adjuvants to reduce toxicity and methods for using the same” (Tosk, Inc., priority 2008, dated 2020).
Like-named read-outs stand apart in the source and are kept apart here.

Tests used:
CCRF-CEM cells = assay: Cell Culture Study I: MTX cytotoxicity, alamarBlue; format: cell-based, human; conditions: 72 hours
Procedure: In this study, CCRF-CEM cells purchased from ATCC were cultured and then 12 tubes containing approximately 10^6 cells each treated for 72 hours with media (Group1), MTX 0.03 μM (Group2), MTX+Leucovorin 1 μM (Group3), MTX+Leucovorin 10 μM (Group4), MTX+Leucovorin 100 μM (Group5), MTX+TK-112690 1 μM (Group6), MTX+TK-112690 10 μM (Group7) and MTX+TK-112690 100 μM (Group8). […] Viability was measured as percent reduction of alamarBlue absorbance.
The tumor cell line CCR-CEM (human T-cell acute lymphoblastic leukemia) is obtained from American Type Culture Collection (CRL-1593.2) and cultured in accordance with the product information sheet with the following exceptions: 55.3 cm^2 Petri dishes are used instead of 75 cm^2 culture flasks, and 1% penicillin-streptomycin solution (HyClone SV30010) and 1% GlutaMAX™ (Gibco 35050) are added to the culture medium.
TK-112690, the representative 2,2′-anhydropyrimidine test article, is dissolved in 40% DMSO, sterile filtered then diluted with sterile distilled water to obtain initial working solutions of 10, 100 and 1000 μM. In testing, a 100 fold dilution is made in culture media to give final assay concentrations of 0.1, 1.0 and 10.0 μM. MTX (SAFC Biosciences M8407) is dissolved in sterile distilled water and 5 N NaOH then sterile filtered. The final pH of the stock solution is 7.8 and working solutions are made with sterile distilled water for final assay concentrations of 30, 3.0, 0.3, 0.03 and 0.003 μM. Leucovorin (Sigma F-7878) is dissolved in sterile distilled water, sterile filtered and diluted with sterile distilled water for final assay concentrations of 0.1, 1.0 and 10.0 μM.
Aliquots of 100 μL of cell suspension are plated in 96 well microtiter plates (Corning costar 3595) and placed in an atmosphere of 5% CO2 at 37° C. (Fisher Scientific Isotemp 3500 CO2 Incubator). After 24 hours, 100 μL of growth medium [RPMI-1640 w/L-glutamine (Cambrex 12-702Q) fortified with sodium pyruvate (HyClone SH30239.01), fetal bovine serum (SAFC Biosciences 12107C) and HEPES buffer (Gibco 15630)] and 2 μL of test solution or vehicle are added respectively per well and the plates incubated for an additional 72 hour incubation. MTX is evaluated at concentrations of 0.003, 0.03, 0.30 and 3.0 μM alone or in combination with either a 2,2′-anhydropyrimidine test article or Leucovorin at concentrations of 0.1, 1.0, 10.0 μM. At the end of incubation, the efficacy of anti-cell proliferation is determined by optical absorbance at λ=570 and 600 nm [Spectramax 250 (Molecular Devices)] in accordance with the standard alamarBlue™ (Biosource) protocol.
Group 1 is the cell control (media treated). Group 2 corresponds to cells treated with 0.03 μM MTX. Group 3 are cells treated with 1.0 μM Leucovorin. Group 4 are cells treated with 0.1 μM Leucovorin. Group 5 are cells treated with 10 μM TK-112690. Group 6 are cells treated with MTX+10 μM TK-112690. Group 7 are cells treated with MTX+1.0 μM TK-112690. Group 8 MTX+0.1 μM TK-112690.

[1] = biological target: mouse small intestinal UPase enzyme (Mus musculus, UniProt P52624); assay: UPase inhibition in mouse small intestinal tissue homogenate (HPLC of uracil); format: biochemical
Procedure: A range of TK-112690 doses were studied for the their ability to prevent metabolic breakdown of uridine through the in vitro inhibition of mouse and human small intestinal UPase enzyme. UPase activity was determined by HPLC analysis using UV detection of uracil concentration (UPase catabolizes uridine into uracil and ribose-1-phosphate). The UPase enzyme material was prepared from homogenized mouse and human being small intestinal tissue. TK-112690 was dissolved in water (50 mg/ml) and analyzed for UPase inhibition in aqueous solution containing 5 mM uridine, 0.01 M Tris, 0.01 M phosphate, 1 mM EDTA, and 1 mM DTT. Reactions were performed at 37° C. at pH of 7.3.
The aim of this study was to evaluate TK-112690 […] as an inhibitor of uridine phosphorylase (UPase) enzyme activity. The range of TK-112690 doses studied for ability to prevent metabolic breakdown of uridine, through the in vitro inhibition of mouse and human small intestinal UPase enzyme, was 0, 0.1, 0.5, 1, 5, 10, 50, 100, 500, 1000, 5000 and 10000 μM). Detection of UPase activity was determined by HPLC analysis using UV detection of uracil concentration (UPase catabolizes uridine into uracil and ribose-1-phosphate).
The UPase enzyme material was prepared from homogenized mouse and human being small intestinal tissue. TK-112690 was dissolved in water (50 mg/ml) and analyzed for UPase inhibition in aqueous solution containing 5 mM uridine, 0.01 M Tris, 0.01 M phosphate, 1 mM EDTA, and 1 mM DTT. Reactions were performed at 37° C. at pH of 7.3.
TK-11260 inhibition of mouse and human UPase was analyzed by reverse phase HPLC using UV detection. HPLC analysis was performed at ambient temperature with a Water 2695 Alliance system equipped with a C18 ECONOSIL 5 U ALLtech column. 20 μl of UPase reaction samples were auto-injected onto column. Mobile phase consisted of water eluting for first 2.5 ml and acetonitrile gradient to 100% in 12.5 ml (flow rate 0.5 ml/min). The outlet fluent was monitored by UV absorption in the range of 240-320 nm. UPase enzymatic activity was based on the AUC of the uracil peaks.

Drosophila melanogaster = assay: Fly Study I: protection from MTX-induced lethality; format: in vivo; conditions: with MTX 0.4 mg; TK-112690 0.005 to 0.1 mg
Procedure: In this study, Drosophila melanogaster eggs (50 eggs per vial) were treated with either 0.005 mg TK-112690+0.4 mg MTX (Group 1), 0.01 mg TK-112690+0.4 mg MTX (Group 2), 0.04 mg TK-112690+0.4 mg MTX (Group 3), 0.1 mg TK-112690+0.4 mg MTX (Group 4), 0.4 mg MTX alone (Group 5) or saline blank (Group 6). Two vials of eggs for each dose group were evaluated for viability (viable flies plus pupae).
The efficacy of cancer chemotherapy can be improved if agents are available to reduce the adverse events associated with treatment with cytotoxic agents. To this end, Drosophila melanogaster (commonly know as the fruit fly) is an ideal organism to screen chemical compounds for such side-effect-reducing agents. This study is aimed at finding a dose of a 2,2′-anhydropyrimidine test article that protects against MTX-induced lethality in insects.
Increasing amounts of a 2,2′-anhydropyrimidine test article (typically 0.03 to 0.1 mg) are mixed in an aqueous solution with 0.3 (or 0.4) mg MTX. Four milliliters (mL) of a 2,2′-anhydropyrimidine test article+MTX solutions are added to an appropriate amount of instant fly medium. Fruit fly eggs are added to a 2,2′-anhydropyrimidine test article+MTX treated medium and incubated for up to 31 days. After the 31 day incubation, each assay is scored by the number of mature fly and pupae per vial.
The assays are set up in clear sterile polystyrene narrow diameter vials from Applied Scientific (Hampton, N.H.). Vials are stored in trays and incubated in a darkened 25° C. incubator.
Reagents and materials used are: 50 mg/mL MTX in H2O (pH 8), 20 mg/mL of the 2,2′-anhydropyrimidine test article in H2O, water, sterile polystyrene narrow diameter vials from Applied Scientific, Instant Drosophila Food Medium, Oregon-R Drosophila melanogaster, 25° C. incubator, and 15 mL polystyrene conical tubes
Each assay is performed in a separate fly vial. […] Pre-measured amounts of instant drosophila medium are added to each assay to achieve optimal hydration level. […] Assays are scored by the number of dead pupae or adult flies per vial.

[2] = Table 3, murine UPase, test method of Experiment IX, read-out: UPase IC50

Chain of mouse small intestinal UPase enzyme (P52624 whole entry, looked up): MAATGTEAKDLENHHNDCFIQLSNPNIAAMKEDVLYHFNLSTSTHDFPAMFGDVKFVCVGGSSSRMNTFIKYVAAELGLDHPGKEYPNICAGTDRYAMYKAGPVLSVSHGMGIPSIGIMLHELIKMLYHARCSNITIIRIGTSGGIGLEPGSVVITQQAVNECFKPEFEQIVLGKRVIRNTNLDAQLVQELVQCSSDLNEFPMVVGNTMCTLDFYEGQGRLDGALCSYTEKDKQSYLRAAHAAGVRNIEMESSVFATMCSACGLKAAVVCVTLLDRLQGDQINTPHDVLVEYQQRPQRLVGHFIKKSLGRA

Row | Structure (SMILES) | IC50 [1, 2] | also measured
1 | Nc1nc2c(c(=O)[nH]1)N(C=O)C(CNc1ccc(C(=O)N[C@@H](CCC(=O)O)C(=O)O)cc1)CN2 (some centres unmarked) [Leucovorin] | – | effect on MTX cytotoxicity (viability, alamarBlue) (CCRF-CEM cells; combined with MTX 0.03 μM): statistically different than Group 2; viability, agent alone vs control (CCRF-CEM cells; without MTX): not statistically different than control
2 | O=c1nc2n(cc1NCc1ccccc1)[C@@H]1O[C@H](CO)[C@@H](O)[C@@H]1O2 [TK-000006] | < 100 µM | –
3 | CCOCc1cn2c(nc1=O)O[C@H]1[C@H](O)[C@@H](CO)O[C@H]12 [TK-000007] | < 100 µM | –
4 | O=c1nc2n(cc1COCc1ccccc1)[C@@H]1O[C@H](CO)[C@@H](O)[C@@H]1O2 [TK-000008] | < 100 µM | –
5 | COCc1cn2c(nc1=O)O[C@H]1[C@H](O)[C@@H](CO)O[C@H]12 [TK-000009] | < 100 µM | protection against MTX-induced lethality in the Fly model (Drosophila melanogaster): active
6 | CC(=N)OCc1cn2c(nc1=O)O[C@H]1[C@H](O)[C@@H](CO)O[C@H]12 [TK-000010] | > 100 µM | –
7 | Cc1cn2c(nc1=O)O[C@H]1[C@H](O)[C@@H](CN=[N+]=[N-])O[C@H]12 [TK-000011] | > 100 µM | –
8 | Cc1cn2c(nc1=O)O[C@H]1C(O)[C@@H](CF)O[C@H]12 (some centres unmarked) [TK-000015] | > 100 µM | –
9 | Cc1ccc(SCc2cn3c(nc2=O)O[C@H]2C(O)[C@@H](CO)O[C@H]23)cc1 (some centres unmarked) [TK-000016] | – | IC50 ([1]; 5 mM uridine, 37° C., pH 7.3, read-out: IC50, mouse small intestinal (murine) UPase): < 100 µM
